Measurements from patent US8815909B2, “Diaminocyclohexane compounds and uses thereof” (Bristol-Myers Squibb Company, priority 2011, dated 2014).

Molecular target: T1, human Y4 receptor (Homo sapiens, UniProt P50391)
T1 construct: expressed in transfected cells
Assay: NPY4 cAMP HTRF Agonist Assay (inhibitory cAMP assay, Gi activation by Y4 agonism)
Type: cell-based
Settings: TABLE 2, R2 is Phenyl-CN; read-out: hY4 CAMP EC50
Summary of the method: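 CHO cells stably expressing human Y4, 5000/well, exposed to compound with forskolin and IBMX in PBS for 30 min at room temperature. Gi-mediated inhibition of cAMP then measured by HTRF after 1 h with d2-conjugate and anti-cAMP cryptate.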

T1 sequence (P50391 whole entry): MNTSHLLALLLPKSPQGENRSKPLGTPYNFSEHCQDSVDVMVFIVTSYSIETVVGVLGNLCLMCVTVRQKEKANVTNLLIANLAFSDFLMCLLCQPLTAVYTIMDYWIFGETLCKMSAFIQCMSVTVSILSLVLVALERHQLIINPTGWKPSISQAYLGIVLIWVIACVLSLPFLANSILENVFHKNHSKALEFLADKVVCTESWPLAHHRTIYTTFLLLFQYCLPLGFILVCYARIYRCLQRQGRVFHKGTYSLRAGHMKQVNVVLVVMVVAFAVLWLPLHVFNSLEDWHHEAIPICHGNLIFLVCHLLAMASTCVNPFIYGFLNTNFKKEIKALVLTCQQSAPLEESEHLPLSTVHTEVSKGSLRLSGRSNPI

| Structure (SMILES) | EC50 [nM] |
| --- | --- |
| N#Cc1ccc(N2C[C@@H]3C[C@H](N[C@@H]4CCCC[C@H]4Nc4cc(-c5cccc(O)c5)ccn4)[C@H]2C3)cc1 [Example 228] | 1 |
| N#Cc1ccc(N2CC3CC2[C@@H](N[C@@H]2CCCC[C@H]2Nc2ncc(-c4ccc(OC(F)F)cc4)o2)C3)cc1 (some centres unmarked) [Example 229] | 3 |
| N#Cc1ccc(N2CCC[C@H](N[C@@H]3CCCC[C@H]3NC3=NOC(c4ccccc4)C3)C2)cc1 (some centres unmarked) [Example 230] | 378 |
| N#Cc1ccc(N2C[C@@H]3C[C@H](N[C@@H]4CCCC[C@H]4Nc4cc(-c5cccc(C(N)=O)c5)ccn4)[C@H]2C3)cc1 [Example 231] | 8 |
| N#Cc1ccc(N2C[C@@H]3C[C@H](N[C@@H]4CCCC[C@H]4Nc4cc(-c5ccccc5)ccn4)[C@H]2C3)cc1 [Example 232] | 37 |
| N#Cc1ccc(N2C[C@@H]3C[C@H](N[C@@H]4CCCC[C@H]4Nc4cc(Br)ccn4)[C@H]2C3)cc1 [Example 233] | 196 |
| C=C(C)c1ccnc(N[C@@H]2CCCC[C@H]2N[C@H]2CCCN(c3ccc(C#N)cc3)C2)c1 [Example 234] | 299 |
| N#Cc1ccc(N2CCC[C@H](N[C@@H]3CCCC[C@H]3Nc3cc(-c4cccc(S(N)(=O)=O)c4)ccn3)C2)cc1 [Example 236] | 40 |
| N#Cc1ccc(N2CCC[C@H](N[C@@H]3CCCC[C@H]3Nc3cc(-c4cccc(N)n4)ccn3)C2)cc1 [Example 237] | 9 |
| N#Cc1ccc(N2C[C@@H]3C[C@H](N[C@@H]4CCCC[C@H]4Nc4ncc(-c5ccc(C(N)=O)cc5)o4)[C@H]2C3)cc1 [Example 238] | 272 |
| N#Cc1ccc(N2CCC[C@H](N[C@@H]3CCCC[C@H]3Nc3cc(-c4ccc(N)cc4)ccn3)C2)cc1 [Example 239] | 290 |
| CN(C)c1cccc(-c2ccnc(N[C@@H]3CCCC[C@H]3N[C@H]3CCCN(c4ccc(C#N)cc4)C3)c2)c1 [Example 240] | 72 |
| N#Cc1ccc(N2CCC[C@H](N[C@@H]3CCCC[C@H]3Nc3cc(-c4ccccc4OC(F)(F)F)ccn3)C2)cc1 [Example 241] | 289 |
| CS(=O)(=O)Nc1cccc(-c2ccnc(N[C@@H]3CCCC[C@H]3N[C@H]3CCCN(c4ccc(C#N)cc4)C3)c2)c1 [Example 242] | 3 |
| CS(=O)(=O)NCc1ccc(-c2ccnc(N[C@@H]3CCCC[C@H]3N[C@H]3CCCN(c4ccc(C#N)cc4)C3)c2)cc1 [Example 243] | 602 |
| CC(=O)NCc1cccc(-c2ccnc(N[C@@H]3CCCC[C@H]3N[C@H]3CCCN(c4ccc(C#N)cc4)C3)c2)c1 [Example 244] | 7 |
| N#Cc1ccc(N2CCC[C@H](N[C@@H]3CCCC[C@H]3Nc3cc(Cc4ccccc4)ccn3)C2)cc1 [Example 245] | 299 |
| C=Cc1ccnc(N[C@@H]2CCCC[C@H]2N[C@H]2CCCN(c3ccc(C#N)cc3)C2)c1 [Example 246] | 379 |
| N#Cc1ccc(N2CCC[C@H](N[C@@H]3CCCC[C@H]3Nc3cc(-c4ccco4)ccn3)C2)cc1 [Example 247] | 15 |
| N#Cc1ccc(N2CCC[C@H](N[C@@H]3CCCC[C@H]3Nc3cc(-c4ccccc4Cl)ccn3)C2)cc1 [Example 248] | 557 |
| N#Cc1ccc(N2CCC[C@H](N[C@@H]3CCCC[C@H]3Nc3cc(-c4cccc(C(F)(F)F)c4)ccn3)C2)cc1 [Example 249] | 537 |
| N#Cc1ccc(N2CCC[C@H](N[C@@H]3CCCC[C@H]3Nc3cc(-c4cccc(Cl)c4)ccn3)C2)cc1 [Example 250] | 559 |
| CC(=O)Nc1cccc(-c2ccnc(N[C@@H]3CCCC[C@H]3N[C@H]3CCCN(c4ccc(C#N)cc4)C3)c2)c1 [Example 251] | 1 |
| CC(=O)c1ccccc1-c1ccnc(N[C@@H]2CCCC[C@H]2N[C@H]2CCCN(c3ccc(C#N)cc3)C2)c1 [Example 253] | 70 |

| Structure (SMILES) | EC50 [nM] |
| --- | --- |
| CS(=O)(=O)c1cccc(-c2ccnc(N[C@@H]3CCCC[C@H]3N[C@H]3CCCN(c4ccc(C#N)cc4)C3)c2)c1 [Example 254] | 381 |
| CS(=O)(=O)c1ccc(-c2ccnc(N[C@@H]3CCCC[C@H]3N[C@H]3CCCN(c4ccc(C#N)cc4)C3)c2)cc1 [Example 255] | 922 |
| CC(=O)c1cccc(-c2ccnc(N[C@@H]3CCCC[C@H]3N[C@H]3CCCN(c4ccc(C#N)cc4)C3)c2)c1 [Example 257] | 100 |
| CC(C)(C)c1cccc(-c2ccnc(N[C@@H]3CCCC[C@H]3N[C@H]3CCCN(c4ccc(C#N)cc4)C3)c2)c1 [Example 259] | 59 |
| CC(C)(O)c1cccc(-c2ccnc(N[C@@H]3CCCC[C@H]3N[C@H]3CCCN(c4ccc(C#N)cc4)C3)c2)c1 [Example 260] | 11 |
| CNC(=O)c1cccc(-c2ccnc(N[C@@H]3CCCC[C@H]3N[C@H]3CCCN(c4ccc(C#N)cc4)C3)c2)c1 [Example 261] | 9 |
| COc1ccccc1-c1ccnc(N[C@@H]2CCCC[C@H]2N[C@H]2CCCN(c3ccc(C#N)cc3)C2)c1 [Example 262] | 116 |
| COc1cccc(-c2ccnc(N[C@@H]3CCCC[C@H]3N[C@H]3CCCN(c4ccc(C#N)cc4)C3)c2)c1 [Example 263] | 87 |
| N#Cc1ccc(N2C[C@@H]3C[C@H](N[C@@H]4CCCC[C@H]4Nc4ncc(-c5cccc(C(N)=O)c5)o4)[C@H]2C3)cc1 [Example 264] | 7 |
| N#Cc1ccc(N2CCC[C@H](N[C@@H]3CCCC[C@H]3Nc3ncc(-c4cccc(C(N)=O)c4)o3)C2)cc1 [Example 265] | 2 |
| N#Cc1ccc(N2C[C@@H]3C[C@H](N[C@@H]4CCCC[C@H]4Nc4ncc(-c5cccc(C#N)c5)o4)[C@H]2C3)cc1 [Example 266] | 181 |
| C[C@@H](O)c1cccc(-c2ccnc(N[C@@H]3CCCC[C@H]3N[C@H]3CCCN(c4ccc(C#N)cc4)C3)c2)c1 [Example 267] | 3 |
| C[C@H](O)c1cccc(-c2ccnc(N[C@@H]3CCCC[C@H]3N[C@H]3CCCN(c4ccc(C#N)cc4)C3)c2)c1 [Example 268] | 8 |
| N#Cc1ccc(N2CCC[C@H](N[C@@H]3CCCC[C@H]3Nc3cc(-c4cc(C#N)cs4)ccn3)C2)cc1 [Example 269] | 223 |
| N#Cc1ccc(N2CCC[C@H](N[C@@H]3CCCC[C@H]3Nc3cc(-c4ccccn4)ccn3)C2)cc1 [Example 270] | 468 |
| Cc1ccc(-c2ccnc(N[C@@H]3CCCC[C@H]3N[C@H]3CCCN(c4ccc(C#N)cc4)C3)c2)cc1 [Example 271] | 461 |
| N#Cc1ccc(N2CCC[C@H](N[C@@H]3CCCC[C@H]3Nc3cc(-c4ccc(C#N)s4)ccn3)C2)cc1 [Example 273] | 542 |
| N#Cc1ccc(N2CCC[C@H](N[C@@H]3CCCC[C@H]3Nc3cc(-c4ccccc4C#N)ccn3)C2)cc1 [Example 274] | 272 |
| N#Cc1ccc(N2CCC[C@H](N[C@@H]3CCCC[C@H]3Nc3cc(-c4ccccc4N)ccn3)C2)cc1 [Example 275] | 872 |
| N#Cc1ccc(N2CCC[C@H](N[C@@H]3CCCC[C@H]3Nc3cc(-c4ccccc4O)ccn3)C2)cc1 [Example 276] | 120 |
| CC(=O)Nc1cc(-c2ccnc(N[C@@H]3CCCC[C@H]3N[C@H]3CCCN(c4ccc(C#N)cc4)C3)c2)ccn1 [Example 277] | 8 |
| CS(=O)(=O)NCc1cccc(-c2ccnc(N[C@@H]3CCCC[C@H]3N[C@H]3CCCN(c4ccc(C#N)cc4)C3)c2)c1 [Example 278] | 24 |
| N#Cc1ccc(N2CCC[C@H](N[C@@H]3CCCC[C@H]3Nc3cc(-c4cccc(N)c4)ccn3)C2)cc1 [Example 279] | 12 |
